Measurements taken from US20140206702A1, “IMIDAZOPYRIDINE COMPOUNDS, COMPOSITIONS AND METHODS OF USE” (Genentech, Inc., priority 2012, published 2014).
Where two headings read alike, the source gives them in different places.

Target: T1, TYK2 kinase domain (Homo sapiens, UniProt P29597)
T1 construct: The activity of the isolated JAK1, JAK2 or TYK2 kinase domain was measured
T1 sequence (P29597 897-1176 limits assumed): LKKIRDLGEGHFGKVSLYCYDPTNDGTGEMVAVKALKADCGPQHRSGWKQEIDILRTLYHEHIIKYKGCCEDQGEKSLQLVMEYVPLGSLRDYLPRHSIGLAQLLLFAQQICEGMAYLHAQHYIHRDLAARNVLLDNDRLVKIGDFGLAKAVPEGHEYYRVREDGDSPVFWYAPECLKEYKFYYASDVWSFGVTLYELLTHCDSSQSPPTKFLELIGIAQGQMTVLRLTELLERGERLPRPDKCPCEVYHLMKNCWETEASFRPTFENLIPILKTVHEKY
Test: JAK1, JAK2 and TYK2 Inhibition Assay Protocol (Caliper LabChip, isolated kinase domain)
Format: biochemical
Conditions: 1 nM purified TYK2 enzyme, 25 uM ATP, Morrison tight binding model
Procedure: The activity of the isolated JAK1, JAK2 or TYK2 kinase domain was measured by monitoring phosphorylation of a peptide derived from JAK3 (Val-Ala-Leu-Val-Asp-Gly-Tyr-Phe-Arg-Leu-Thr-Thr) fluorescently labeled on the N-terminus with 5-carboxyfluorescein using the Caliper LabChip technology (Caliper Life Sciences, Hopkinton, Mass.). To determine the inhibition constants (Ki) of Examples 1-11, compounds were diluted serially in DMSO and added to 50 uL kinase reactions containing 1.5 nM JAK1, 0.2 nM purified JAK2 or 1 nM purified TYK2 enzyme, 100 mM Hepes pH7.2, 0.015% Brij-35, 1.5 uM peptide substrate, 25 uM ATP, 10 mM MgCl2, 4 mM DTT at a final DMSO concentration of 2%. Reactions were incubated at 22° C. in 384-well polypropylene microtiter plates for 30 minutes and then stopped by addition of 25 uL of an EDTA containing solution (100 mM Hepes pH 7.2, 0.015% Brij-35, 150 mM EDTA), resulting in a final EDTA concentration of 50 mM. After termination of the kinase reaction, the proportion of phosphorylated product was determined as a fraction of total peptide substrate using the Caliper LabChip 3000 according to the manufacturer's specifications. Ki values were then determined using the Morrison tight binding model. Morrison, J. F., Biochim. Biophys. Acta. 185:269-296 (1969); William, J. W. and Morrison, J. F., Meth. Enzymol., 63:437-467 (1979).

[1] = read-out: Ki values for TYK2 inhibition

Row | Ki [1] [nM] | Ki (Table 1, read-out: TYK2 Ki) [nM] | Compound
1 | 0.4 |  | N#Cc1cccc(F)c1-c1nc2ccnc(Nc3cc(N)ncn3)c2[nH]1 [Example 1, 2-(4-(6-aminopyrimidin-4-ylamino)-3H-imidazo[4,5-c]pyridin-2-yl)-3-fluorobenzonitrile]
2 |  | 0.4 | N#Cc1cccc(Cl)c1-c1nc2ccnc(Nc3cc(N)ncn3)c2[nH]1 [Example 2, 2-(4-(6-aminopyrimidin-4-ylamino)-3H-imidazo[4,5-c]pyridine-2-yl)-3-chlorobenzonitrile]
3 |  | 0.8 | Cc1cc(Nc2nccc3nc(-c4c(Cl)cccc4C#N)[nH]c23)ncn1 [Example 3, 3-chloro-2-(4-(6-methylpyrimidin-4-ylamino)-3H-imidazo[4,5-c]pyridine-2-yl)benzonitrile]
4 |  | 1 | Cc1cc(Nc2nccc3nc(-c4c(F)cccc4C#N)[nH]c23)ncn1 [Example 4, 3-fluoro-2-(4-(6-methylpyrimidin-4-ylamino)-3H-imidazo[4,5-c]pyridine-2-yl)benzonitrile]
5 |  | 0.8 | N#Cc1cccc(Cl)c1-c1nc2ccnc(Nc3cc(CO)ncn3)c2[nH]1 [Example 5, 3-chloro-2-(4-(6-(hydroxymethyl)pyrimidin-4-ylamino)-3H-imidazo[4,5-c]pyridin-2-yl)benzonitrile]
6 |  | 0.6 | CNc1cc(Nc2nccc3nc(-c4c(Cl)cccc4C#N)[nH]c23)ncn1 [Example 6, 3-chloro-2-(4-(6-(methylamino)pyrimidin-4-ylamino)-3H-imidazo[4,5-c]pyridin-2-yl)benzonitrile]
7 | 2.7 |  | Cc1cc(Nc2nccc3nc(-c4c(C#N)cccc4C#N)[nH]c23)ncn1 [Example 7, 2-(4-(6-methylpyrimidin-4-ylamino)-3H-imidazo[4,5-c]pyridine-2-yl)isophthalonitrile]
8 |  | 0.7 | CNc1cc(Nc2nccc3nc(-c4c(F)cccc4C#N)[nH]c23)ncn1 [Example 8, 3-fluoro-2-(4-(6-(methylamino)pyrimidin-4-ylamino)-3H-imidazo[4,5-c]pyridin-2-yl)benzonitrile]
9 |  | 2 | N#Cc1cccc(F)c1-c1nc2ccnc(Nc3cc(CO)ncn3)c2[nH]1 [Example 9, 3-fluoro-2-(4-(6-(hydroxymethyl)pyrimidin-4-ylamino)-3H-imidazo[4,5-c]pyridin-2-yl)benzonitrile]
10 |  | 1.3 | N#Cc1cccc(Cl)c1-c1nc2ccnc(NC(=O)C3CC3)c2[nH]1 [Example 10, N-(2-(2-chloro-6-cyanophenyl)-3H-imidazo[4,5-c]pyridin-4-yl)cyclopropanecarboxamide]
11 | 6 |  | N#Cc1cccc(F)c1-c1nc2ccnc(NC(=O)C3CC3)c2[nH]1 [Example 11, N-(2-(2-cyano-6-fluorophenyl)-3H-imidazo[4,5-c]pyridin-4-yl)cyclopropanecarboxamide]
